Assay results reported in article PMC10143822, “Structural Adaptation of the Single-Stranded DNA-Binding Protein C-Terminal to DNA Metabolizing Partners Guides Inhibitor Design” (Pharmaceutics, 2023).
Where a SMILES comes first, the peptide text is derived from it. Where no end group is shown, it is not given here. [ ]: non-standard residue; d: D form. Phe(4-CF3) = N[C@@H](Cc1ccc(C(F)(F)F)cc1)C(=O)O; β3hI = CC[C@H](C)[C@H](N)CC(=O)O; Tic = O=C(O)[C@@H]1Cc2ccccc2CN1; β3hF = N[C@H](CC(=O)O)Cc1ccccc1; 2Thi = N[C@@H](Cc1cccs1)C(=O)O; Tle = CC(C)(C)[C@H](N)C(=O)O; β3hD = NC(CC(=O)O)CC(=O)O

Experiments:
ExoI [1] = biological target: T1, ExoI (Escherichia coli, UniProt P04995); test: Isothermal titration calorimetry with ExoI; type: binding, E. coli
T1 construct: His-tag (cleaved yes); host or cells: E. coli BL21 (DE3) pLysS
T1 sequence (P04995 whole entry): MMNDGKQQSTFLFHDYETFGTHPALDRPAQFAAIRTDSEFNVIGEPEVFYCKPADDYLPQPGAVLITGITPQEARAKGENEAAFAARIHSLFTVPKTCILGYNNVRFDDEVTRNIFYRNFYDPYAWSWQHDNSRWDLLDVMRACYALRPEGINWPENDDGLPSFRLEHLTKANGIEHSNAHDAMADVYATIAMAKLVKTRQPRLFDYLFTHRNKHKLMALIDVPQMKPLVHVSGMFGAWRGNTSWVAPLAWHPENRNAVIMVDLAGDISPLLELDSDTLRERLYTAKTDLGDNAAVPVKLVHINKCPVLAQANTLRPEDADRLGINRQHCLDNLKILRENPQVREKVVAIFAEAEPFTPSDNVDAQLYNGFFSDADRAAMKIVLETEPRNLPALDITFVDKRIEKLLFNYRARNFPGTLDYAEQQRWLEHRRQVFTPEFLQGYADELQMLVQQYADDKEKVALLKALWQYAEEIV
Experimental: Isothermal titration calorimetry (ITC) experiments were performed using a MicroCal VP-ITC titration microcalorimeter. ExoI was dialyzed extensively against the indicated buffer and cleared through centrifugation at 14,000 rpm for 15 min at 4 °C. RecO was subjected to a quick buffer exchange using an Amicon Ultra ultrafiltration device (Sigma). Protein concentrations were determined after the buffer exchange procedure.
The raw data were integrated using NITPIC [39]. The binding parameters, association equilibrium constant (KA), binding enthalpy (ΔH), and binding entropy (ΔS) were obtained by fitting the titration curves to a model of A + B = C in SEDPHAT [40]. Stoichiometry was fixed to 1:1 and the incompetent fraction was fitted for the protein concentration.

ExoI [2] = biological target: T1, ExoI; test: biochemical; type: binding, E. coli
Experimental: (§1) Triplicate measurements were performed using a Clariostar Plus Microplate Reader in 384-well plates for all fluorescence anisotropy (FA) experiments. The settings were 25 °C, excitation at 485 nm, emission at 510 nm, settling time of 0.2 s, and 200 flashes per well.
(§2) Competition fluorescence anisotropy experiments were carried out as follows: protein (0.5 μM either ExoI or RecO) was incubated with 50 nM F-wtSSB peptide and 0–500 μM unlabeled wtSSB (or a variant) peptide for 30 min at room temperature. For direct fluorescence anisotropy measurements, 16 µM ExoI and 7.5 µM RecO were used in the first well. After serial dilution, either 50 nM of F-mSSB or F-sSSB was added to the wells and then incubated for 30 min. Buffers used included 20 mM Tris-HCl (pH 8.0), 100 mM NaCl, 1 mM MgCl2, 1 mM 2-mercaptoethanol, 10% (v/v) glycerol, for ExoI and 20 mM Tris-HCl (pH 8.0), 200 mM NaCl, 1 mM 2-mercaptoethanol, 10% (v/v) glycerol, and 0.01% Triton-X 100 for RecO [37].
(§3) Fluorescence anisotropy values were normalized and are shown as bound fractions (BF, %). BF=r−rmin/λ(rmax−r)+r−rmin, I=2∗PG+S, r=S−PG/I, where r: anisotropy, I: total intensity, P: perpendicular intensity, S: parallel intensity, G: an instrument factor set to 1, BF: ligand fraction bound, and λ=λbound/λunbound=1 .
(§4) Competitive fluorescence anisotropy was analyzed in Origin Pro 9.5, and IC50 values were determined using the Logistic Nonlinear fit function and are shown as plots for each mutated position for each protein in Figures S4 and S6. EC50 values from direct fluorescence anisotropy titrations were plotted in Origin 9.5. Values were determined using the Logistics Nonlinear fit function.

RecO = biological target: T2, RecO (Escherichia coli, UniProt P0A7H3); test: biochemical; type: binding; details: 0.5 μM RecO, 50 nM F-wtSSB tracer, 0–500 μM unlabeled peptide, 30 min room temperature; 20 mM Tris-HCl pH 8.0, 200 mM NaCl, 10% glycerol, 0.01% Triton-X 100; 25 °C; triplicate; read-out: IC50 on RecO, competitive fluorescence anisotropy
T2 construct: His-tag (TEV site) (N, cleaved yes); made in house; host or cells: E. coli Rosetta cells
T2 sequence (P0A7H3 whole entry): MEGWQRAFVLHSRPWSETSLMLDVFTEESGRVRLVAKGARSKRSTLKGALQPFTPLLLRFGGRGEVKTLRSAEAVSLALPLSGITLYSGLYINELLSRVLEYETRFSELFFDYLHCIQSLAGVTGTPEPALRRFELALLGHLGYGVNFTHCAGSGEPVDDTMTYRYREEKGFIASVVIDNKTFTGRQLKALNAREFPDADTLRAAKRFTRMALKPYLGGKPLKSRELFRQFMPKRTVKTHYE
Experimental: as §1, §2, §3, §4

| Compound | Kd (ExoI [1]) [µM] | IC50 (ExoI [2]) [µM] | IC50 (RecO) [µM] |
| --- | --- | --- | --- |
| CC[C@H](C)[C@H](NC(=O)[C@H](CC(=O)O)NC(=O)[C@H](CC(=O)O)NC(=O)[C@H](CC(=O)O)NC(=O)[C@H](Cc1ccc(C(F)(F)F)cc1)NC(=O)[C@H](CC(=O)O)NC(C)=O)C(=O)N1CCC[C@H]1C(=O)N[C@@H](Cc1ccc(C(F)(F)F)cc1)C(=O)O [E2-sSSB-Ct] (Ac-D[Phe(4-CF3)]DDDIP[Phe(4-CF3)]-OH) | 0.04 | 0.35 | – |
| CC[C@H](C)[C@H](NC(=O)[C@H](CC(=O)O)NC(=O)[C@H](CC(=O)O)NC(=O)[C@H](CC(=O)O)NC(=O)[C@H](Cc1ccccc1)NC(=O)[C@H](CC(=O)O)NC(C)=O)C(=O)N1CCC[C@H]1C(=O)N[C@@H](Cc1cccs1)C(=O)O [Thi8] (Ac-DFDDDIP[2Thi]-OH) | – | 7.72 ± 0.51 | 8.59 ± 7.26 |
| CC[C@H](C)[C@H](NC(=O)[C@H](CC(=O)O)NC(=O)[C@H](CC(=O)O)NC(=O)[C@H](CC(=O)O)NC(=O)[C@@H]1Cc2ccccc2CN1C(=O)[C@H](CC(=O)O)NC(C)=O)C(=O)N1CCC[C@H]1C(=O)N[C@@H](Cc1ccccc1)C(=O)O [Tic2] (Ac-D[Tic]DDDIPF-OH) | – | 6.6 ± 0.55 | 3.99 ± 0.1 |
| CC[C@H](C)[C@H](NC(=O)[C@H](CC(=O)O)NC(=O)[C@H](CC(=O)O)NC(=O)[C@H](CC(=O)O)NC(=O)[C@H](Cc1ccccc1)NC(=O)[C@H](CC(=O)O)NC(C)=O)C(=O)N1CCC[C@H]1C(=O)N1Cc2ccccc2C[C@H]1C(=O)O [Tic8] (Ac-DFDDDIP[Tic]-OH) | – | 96.1 ± 83.8 | 141 ± 8.37 |
| CC(=O)N[C@@H](CC(=O)O)C(=O)N[C@@H](Cc1ccccc1)C(=O)N[C@@H](CC(=O)O)C(=O)N[C@@H](CC(=O)O)C(=O)N[C@@H](CC(=O)O)C(=O)N[C@H](C(=O)N1CCC[C@H]1C(=O)N[C@@H](Cc1ccccc1)C(=O)O)C(C)(C)C [tBuGly6] (Ac-DFDDD[Tle]PF-OH) | – | 2.87 ± 0.26 | 10.4 ± 1.02 |
| CC[C@H](C)[C@H](NC(=O)[C@H](CC(=O)O)NC(=O)[C@H](CC(=O)O)NC(=O)[C@H](CC(=O)O)NC(=O)[C@H](Cc1ccccc1)NC(=O)C[C@H](CC(=O)O)NC(C)=O)C(=O)N1CCC[C@H]1C(=O)N[C@@H](Cc1ccccc1)C(=O)O [β3-Asp1] (Ac-[β3hD]FDDDIPF-OH) | – | 4.47 ± 0.25 | 8.03 ± 0.4 |
| CC[C@H](C)[C@H](NC(=O)[C@H](CC(=O)O)NC(=O)[C@H](CC(=O)O)NC(=O)C[C@H](CC(=O)O)NC(=O)[C@H](Cc1ccccc1)NC(=O)[C@H](CC(=O)O)NC(C)=O)C(=O)N1CCC[C@H]1C(=O)N[C@@H](Cc1ccccc1)C(=O)O [β3-Asp3] (Ac-DF[β3hD]DDIPF-OH) | – | 3.65 ± 0.16 | 8.92 ± 0.39 |
| CC[C@H](C)[C@H](NC(=O)[C@H](CC(=O)O)NC(=O)C[C@H](CC(=O)O)NC(=O)[C@H](CC(=O)O)NC(=O)[C@H](Cc1ccccc1)NC(=O)[C@H](CC(=O)O)NC(C)=O)C(=O)N1CCC[C@H]1C(=O)N[C@@H](Cc1ccccc1)C(=O)O [β3-Asp4] (Ac-DFD[β3hD]DIPF-OH) | – | 1.54 ± 0.13 | 19.6 ± 2.78 |
| CC[C@H](C)[C@H](NC(=O)C[C@H](CC(=O)O)NC(=O)[C@H](CC(=O)O)NC(=O)[C@H](CC(=O)O)NC(=O)[C@H](Cc1ccccc1)NC(=O)[C@H](CC(=O)O)NC(C)=O)C(=O)N1CCC[C@H]1C(=O)N[C@@H](Cc1ccccc1)C(=O)O [β3-Asp5] (Ac-DFDD[β3hD]IPF-OH) | – | 13.9 ± 6.11 | 5.91 ± 0.68 |
| CC[C@H](C)[C@@H](CC(=O)N1CCC[C@H]1C(=O)N[C@@H](Cc1ccccc1)C(=O)O)NC(=O)[C@H](CC(=O)O)NC(=O)[C@H](CC(=O)O)NC(=O)[C@H](CC(=O)O)NC(=O)[C@H](Cc1ccccc1)NC(=O)[C@H](CC(=O)O)NC(C)=O [β3-Ile6] (Ac-DFDDD[β3hI]PF-OH) | – | 11.28 ± 0.03 | 19.2 ± 7.47 |
| CC[C@H](C)[C@H](NC(=O)[C@H](CC(=O)O)NC(=O)[C@H](CC(=O)O)NC(=O)[C@H](CC(=O)O)NC(=O)C[C@H](Cc1ccccc1)NC(=O)[C@H](CC(=O)O)NC(C)=O)C(=O)N1CCC[C@H]1C(=O)N[C@@H](Cc1ccccc1)C(=O)O [β3-Phe2] (Ac-D[β3hF]DDDIPF-OH) | – | 3.8 ± 0.11 | 3.66 ± 0.61 |
| Ac-DFDDNIPF [Asn5] | – | 7.92 ± 0.62 | 16 ± 0.51 |
